The source of these data is ChEMBL document CHEMBL1127185, “4-Aryltetrahydropyridines as selective ligands” (Bioorg Med Chem Lett, 1993).

One experiment concerns the target D(2) dopamine receptor (Rattus norvegicus, UniProt P61169). The experiment in a line: Binding affinity against Dopamine receptor D2 in rat striatum using [3H]spiperone. Format: tissue-based.
The test system of a further experiment is Mus musculus. The experiment in a line: Tested for effective dose causing inhibition of mouse locomotor activity by intraperitoneal administration. It is filed as functional. As to conditions: ip.
Experiment [1] deals with Rattus norvegicus. The experiment can be described thus: Tested for the inhibition of dopamine firing at 2.5 mg/kg by intraperitoneal administration. Format: functional. To be noted: ip.
The test system of experiment [2] is Rattus norvegicus. The experiment in a line: Tested for the inhibition of dopamine synthesis at 10 mg/kg by intraperitoneal administration. To be noted: ip. Format: functional.
The test system of experiment [3] is Rattus norvegicus. The experiment in a line: Tested for the inhibition of dopamine firing at 2.5 mg/Kg by intraperitoneal administration. Format: functional. To be noted: ip.
For experiment [4], the system named is Rattus norvegicus. The experiment can be described thus: Tested for the inhibition of dopamine synthesis at 10 mg//Kg by intraperitoneal administration. Format: functional.

The structures appear in SMILES notation.

Chain of D(2) dopamine receptor (P61169 whole entry): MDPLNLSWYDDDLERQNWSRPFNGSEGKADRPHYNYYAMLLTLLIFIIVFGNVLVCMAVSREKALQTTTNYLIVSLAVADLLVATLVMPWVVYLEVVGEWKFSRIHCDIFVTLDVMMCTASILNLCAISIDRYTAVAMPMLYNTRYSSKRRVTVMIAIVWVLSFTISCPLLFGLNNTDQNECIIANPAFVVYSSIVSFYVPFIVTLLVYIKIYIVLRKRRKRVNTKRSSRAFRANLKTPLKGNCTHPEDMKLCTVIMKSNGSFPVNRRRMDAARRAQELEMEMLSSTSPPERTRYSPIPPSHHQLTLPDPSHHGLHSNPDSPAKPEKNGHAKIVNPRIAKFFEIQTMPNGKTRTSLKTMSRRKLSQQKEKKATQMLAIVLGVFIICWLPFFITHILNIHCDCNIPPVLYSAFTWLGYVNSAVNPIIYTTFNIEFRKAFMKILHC

As a reminder, the Ki is the equilibrium dissociation constant of an inhibitor or competing ligand from its target. Read a low Ki as higher affinity. By ED50 is commonly meant the dose at which the effect has come halfway, by size or by number of responders. A lower ED50 goes with greater potency. The term inhibition in vivo denotes the relative decrease from the control value, in per cent. Low values mean a response near the control, high ones a response far below the control. For the compound `Fc1ccc(C2=CCN(CCCCc3ccncc3)CC2)cc1`, the affinity on D(2) dopamine receptor corresponds to a Ki of 5310 nM. It took a dose of 3.8 mg/kg to reach the 50% effect level with Mus musculus (ED50). Further, 2.5 mg/kg produced 9% inhibition in vivo in the experiment on Rattus norvegicus [1]. The compound also showed an inhibition in vivo at 10 mg/kg in the experiment on Rattus norvegicus [2] of 0%.

As for `Clc1ccc(C2=CCN(CCCCc3ccncc3)CC2)cc1`, affinity on D(2) dopamine receptor was put at a Ki of 456 nM.

On to `COc1ccc(C2=CCN(CCCCc3ccncc3)CC2)cc1`, for which the Ki at D(2) dopamine receptor is 1640 nM. The 50% effect level in the experiment on Mus musculus (ED50) was put at a dose of 7.4 mg/kg. The inhibition in vivo at 2.5 mg/kg in the experiment with Rattus norvegicus [1] is 6%. In the experiment on Rattus norvegicus [2], the inhibition in vivo at 10 mg/kg was determined as 18%.

Regarding `C1=C(c2ccccn2)CCN(CCCCc2ccncc2)C1`, the Ki at D(2) dopamine receptor stood at 322 nM.

In turn, `C1=C(c2ccc3ccccc3c2)CCN(CCCCc2ccncc2)C1` yielded an inhibitory constant (Ki) on D(2) dopamine receptor of 660 nM.

At D(2) dopamine receptor, `C1=C(c2c[nH]c3ccccc23)CCN(CCCCc2ccncc2)C1` registered a Ki of 286 nM.

The Inhibition is the share of the control response that was lost under treatment. Low values mean little suppression, high ones strong suppression. The compound `C1=C(c2ccccc2)CCN(CCCCc2ccncc2)C1` gave an inhibition in vivo at 2.5 mg/kg in the experiment with Rattus norvegicus [3] of 80%. In the experiment on Rattus norvegicus [4], this compound returned an Inhibition of 87%. Further, the affinity on D(2) dopamine receptor, expressed as Ki, was 69.1 nM. Besides, the 50% effect level in the experiment on Mus musculus (ED50) was put at a dose of 0.6 mg/kg.

For `Cc1ccc(C2=CCN(CCCCc3ccncc3)CC2)cc1`, affinity at D(2) dopamine receptor was put at a Ki of 957 nM.

Compound `C1=C(c2cccs2)CCN(CCCCc2ccncc2)C1` displayed a Ki on D(2) dopamine receptor of 496 nM.
